Assay results from patent publication US9770452B2, “Quinoxaline derivatives as GPR6 modulators” (Takeda Pharmaceutical Company Limited, priority 2012, dated 2017).

Each substance was assayed against T1, GPR6 receptor (Homo sapiens, UniProt P46095) (assay: Inhibition of cAMP Activity of GPR6 In Vitro Assay (CHO-K1 cells, HTRF cAMP)). Conditions: compounds of Compound Table 1; inhibition of constitutive cAMP activity of GPR6 expressed in CHO-K1 cells; approximate IC50; read-out: IC50.
T1 construct: expressed in transfected cells
T1 sequence (P46095 whole entry): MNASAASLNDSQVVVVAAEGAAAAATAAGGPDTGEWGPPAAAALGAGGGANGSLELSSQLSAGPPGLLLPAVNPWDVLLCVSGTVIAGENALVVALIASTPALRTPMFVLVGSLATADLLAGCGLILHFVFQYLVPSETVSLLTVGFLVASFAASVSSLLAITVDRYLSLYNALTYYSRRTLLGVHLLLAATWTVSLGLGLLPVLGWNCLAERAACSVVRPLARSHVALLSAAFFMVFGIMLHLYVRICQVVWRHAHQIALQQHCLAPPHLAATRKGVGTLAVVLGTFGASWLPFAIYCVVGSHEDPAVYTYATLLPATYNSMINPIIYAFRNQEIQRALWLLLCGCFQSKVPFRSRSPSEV
Type: cell-based
Protocol: Inhibition of cAMP Activity of GPR6 In Vitro Assay
This cell based assay measures the ability of compounds to inhibit the constitutive cAMP activity of GPR6 receptor expressed in CHO-K1 cells. CHO cells were stably expressed with GPR6 receptor, whose expression is controlled by a tetracycline inducable element. The cells were cultured in medium containing F12K, 10% FBS, 1% Penn/Strep, 200 ug/mL Hygromycin. GPR6 receptor expression was induced for 20 hrs with 1 μg/ml doxycycline (sigma D9891) in growth media. After addition of doxycycline cells were plated at a density of 250-500 cells per well in half-volume black clear bottom plates (Costar) and place in an incubator (37°, 5% C(O)2) for 20 hours prior to cAMP assays.
Culture media was removed from cells and they were washed with 50 μL of Ringer's Buffer (MgCl2 0.047 mg/mL, NaH2PO4 0.18 mg/mL, Na2HPO4 0.1 mg/mL, KCl 0.34 mg/mL, NaHC(O)3 1.26 mg/mL, D-glucose 1.8 mg/mL, NaCl 7 mg/mL; pH=7.4). Compounds suspended in DMSO were diluted in Ringer's Buffer containing 0.5% fatty acid free BSA and incubated on cells for 45 min at […] and 5% C(O)2. After incubation cells were incubated for 10 min at room temp with Eu-cAMP tracer solution from a Perkin Elmer Lance HTRF UltracAMP assay kit (TRF0264). Then ULight™-anti-cAMP solution from the Lance HTRF kit was added and incubated on a shaker at room temp for 1 hour prior to HTRF detection in a BMG PolarStar Omega.
IC50 curves were generated with a four-parameter logistic equation using GraphPad Prism 5.03.

Row | Substance | IC50
1 | 3-(4-(2,5-dichlorobenzyl)piperazin-1-yl)-2-(isoxazol-3-ylamino)quinoxaline-6-carbonitrile, 2,2,2-trifluoroacetic acid salt [Cpd 340] | 15400 nM
2 | 3-(4-(2,5-dichlorobenzyl)piperazin-1-yl)-N-(1,2,4-triazin-3-yl)quinoxalin-2-amine, 2,2,2-trifluoroacetic acid salt [Cpd 177] | 17800 nM
3 | 3-(4-(2,5-dichlorobenzyl)piperazin-1-yl)-N-(2-ethoxyethyl)quinoxalin-2-amine, 2,2,2-trifluoroacetic acid salt [Cpd 167] | 3330 nM
4 | 3-(4-(2,5-dichlorobenzyl)piperazin-1-yl)-N-(pyridin-4-yl)quinoxalin-2-amine, 2,2,2-trifluoroacetic acid salt [Cpd 214] | 1470 nM
5 | 3-(4-(2,5-dichlorobenzyl)piperazin-1-yl)-N-(pyrimidin-4-yl)quinoxalin-2-amine, 2,2,2-trifluoroacetic acid salt [Cpd 174] | 1670 nM
6 | 3-(4-(2,5-dichlorobenzyl)piperazin-1-yl)-N-(tetrahydro-2H-pyran-4-yl)quinoxalin-2-amine, 2,2,2-trifluoroacetic acid salt [Cpd 171] | 1570 nM
7 | 3-(4-(2,5-difluorobenzoyl)piperidin-1-yl)-2-(isopropylamino)-N,N-dimethylpyrido[3,4-b]pyrazine-7-carboxamide, 2,2,2-trifluoroacetic acid salt [Cpd 635] | 40 nM
8 | 3-(4-(2,5-difluorobenzoyl)piperidin-1-yl)-2-(isopropylamino)pyrido[3,4-b]pyrazine-7-carbonitrile, 2,2,2-trifluoroacetic acid salt [Cpd 631] | 6 nM
9 | 3-(4-(2,5-difluorobenzyl)piperazin-1-yl)-2-((3,3,3-trifluoropropyl)amino)quinoxaline-6-carbonitrile, 2,2,2-trifluoroacetic acid salt [Cpd 400] | 390 nM
10 | 3-(4-(2,5-difluorobenzyl)piperazin-1-yl)-2-((6-methoxypyridin-3-yl)amino)quinoxaline-6-carbonitrile, 2,2,2-trifluoroacetic acid salt [Cpd 333] | 97 nM
11 | 3-(4-(2-fluoro-4-methoxybenzyl)piperidin-1-yl)-2-(isopropylamino)pyrido[3,4-b]pyrazine-7-carbonitrile, 2,2,2-trifluoroacetic acid salt [Cpd 636] | 16 nM
12 | 3-(4-(2-fluoro-4-methoxybenzyl)piperidin-1-yl)-N-isopropylpyrazino[2,3-d]pyridazin-2-amine, 2,2,2-trifluoroacetic acid salt [Cpd 642] | 54 nM
13 | 3-(4-(2-fluoro-4-methoxyphenoxy)piperidin-1-yl)-2-(isopropylamino)pyrido[3,4-b]pyrazine-7-carbonitrile, 2,2,2-trifluoroacetic acid salt [Cpd 628] | 276 nM
14 | 3-(4-(2-fluoro-4-methoxyphenoxy)piperidin-1-yl)-N-isopropylpyrido[3,4-b]pyrazin-2-amine, 2,2,2-trifluoroacetic acid salt [Cpd 616] | 939 nM
15 | 3-(4-(2-fluoro-4-methoxyphenoxy)piperidin-1-yl)-N-isopropylpyrido[3,4-b]pyrazin-2-amine, 2,2,2-trifluoroacetic acid salt [Cpd 617] | 54 nM
16 | 3-(4-(3-bromo-4-fluorobenzoyl)piperazin-1-yl)-2-(cyclopropylamino)quinoxaline-6-carbonitrile, 2,2,2-trifluoroacetic acid salt [Cpd 256] | 380 nM
17 | 3-(4-(3-chloro-4-fluorobenzyl)piperazin-1-yl)-N-cyclopropylpyrido[3,4-b]pyrazin-2-amine, 2,2,2-trifluoroacetic acid salt [Cpd 315] | 50 nM
18 | 3-(4-(3-chlorophenoxy)piperidin-1-yl)-N-cyclopropylpyrido[3,4-b]pyrazin-2-amine, 2,2,2-trifluoroacetic acid salt [Cpd 426] | 27 nM
19 | 3-(4-(4-chloro-2-fluorophenoxy)piperidin-1-yl)-2-(cyclopropylamino)quinoxaline-6-carbonitrile, 2,2,2-trifluoroacetic acid salt [Cpd 465] | 11 nM
20 | 3-(4-(4-chloro-2-fluorophenoxy)piperidin-1-yl)-2-(isopropylamino)-N,N-dimethylpyrido[3,4-b]pyrazine-7-carboxamide, 2,2,2-trifluoroacetic acid salt [Cpd 630] | 7 nM

Row | Substance | IC50
21 | 3-(4-(4-chloro-2-fluorophenoxy)piperidin-1-yl)-N-isopropylpyrazino[2,3-d]pyridazin-2-amine, 2,2,2-trifluoroacetic acid salt [Cpd 643] | 15 nM
22 | 3-(4-(4-chloro-3-methylbenzyl)piperazin-1-yl)-N-cyclopropylquinoxalin-2-amine, 2,2,2-trifluoroacetic acid salt [Cpd 194] | 3640 nM
23 | 3-(4-(4-chlorobenzyl)piperidin-1-yl)-N-cyclopropylpyrido[3,4-b]pyrazin-2-amine, 2,2,2-trifluoroacetic acid salt [Cpd 424] | 310 nM
24 | 3-(4-(5-(tert-butyl)-2-methoxybenzyl)piperazin-1-yl)-N-cyclopropylpyrido[3,4-b]pyrazin-2-amine, 2,2,2-trifluoroacetic acid salt [Cpd 306] | 380 nM
25 | 3-(4-(5-chloro-2-fluorobenzoyl)piperidin-1-yl)-2-(cyclopropylamino)quinoxaline-6-carbonitrile, 2,2,2-trifluoroacetic acid salt [Cpd 469] | 90 nM
26 | 3-(4-(5-cyano-2-(dimethylcarbamoyl)benzoyl)piperidin-1-yl)-2-(cyclopropylamino)-N,N-dimethylpyrido[3,4-b]pyrazine-7-carboxamide [Cpd 596] | 26 nM
27 | 3-(4-((2,4-difluorophenyl)fluoromethyl)piperidin-1-yl)-N-(2-methoxyethyl)pyrido[3,4-b]pyrazin-2-amine, 2,2,2-trifluoroacetic acid salt [Cpd 520] | 30 nM
28 | 3-(4-((2,4-difluorophenyl)fluoromethyl)piperidin-1-yl)-N-isopropylpyrido[3,4-b]pyrazin-2-amine, 2,2,2-trifluoroacetic acid salt [Cpd 621] | 21 nM
29 | 3-(4-((2-chloro-4-(trifluoromethyl)phenyl)sulfonyl)piperazin-1-yl)-2-(cyclopropylamino)quinoxaline-6-carbonitrile, 2,2,2-trifluoroacetic acid salt [Cpd 330] | 29 nM
30 | 3-(4-((2-cyanophenyl)sulfonyl)piperazin-1-yl)-2-(cyclopropylamino)quinoxaline-6-carbonitrile, 2,2,2-trifluoroacetic acid salt [Cpd 252] | 2540 nM
31 | 3-(4-((3-chloro-5-fluoro-2-methylphenyl)sulfonyl)piperazin-1-yl)-2-(cyclopropylamino)quinoxaline-6-carbonitrile, 2,2,2-trifluoroacetic acid salt [Cpd 282] | 4290 nM
32 | 3-(4-((4-(tert-butyl)phenyl)sulfonyl)piperazin-1-yl)-2-(cyclopropylamino)quinoxaline-6-carbonitrile, 2,2,2-trifluoroacetic acid salt [Cpd 280] | 450 nM
33 | 3-(4-((4-bromo-2-fluorophenyl)sulfonyl)piperazin-1-yl)-2-(cyclopropylamino)quinoxaline-6-carbonitrile, 2,2,2-trifluoroacetic acid salt [Cpd 285] | 1360 nM
34 | 3-(4-((4-bromophenyl)sulfonyl)piperazin-1-yl)-2-(cyclopropylamino)quinoxaline-6-carbonitrile [Cpd 251] | 4340 nM
35 | 3-(4-((4-chloro-2,5-dimethylphenyl)sulfonyl)piperazin-1-yl)-2-(cyclopropylamino)quinoxaline-6-carbonitrile, 2,2,2-trifluoroacetic acid salt [Cpd 281] | 960 nM
36 | 3-(4-((4-chloro-2-oxopyridin-1(2H)-yl)methyl)piperidin-1-yl)-2-(cyclopropylamino)quinoxaline-6-carbonitrile [Cpd 526] | 670 nM
37 | 3-(4-((4-chlorophenyl)sulfonyl)piperazin-1-yl)-2-(cyclopropylamino)quinoxaline-6-carbonitrile, 2,2,2-trifluoroacetic acid salt [Cpd 227] | 3290 nM
38 | 3-(4-((5-chloro-2-fluorophenyl)difluoromethyl)piperidin-1-yl)-N-cyclopropyl-5-methylpyrido[3,4-b]pyrazin-2-amine [Cpd 536] | 930 nM
39 | 3-(4-((5-chloro-2-fluorophenyl)difluoromethyl)piperidin-1-yl)-N-cyclopropylpyrido[3,4-b]pyrazin-2-amine [Cpd 539] | 770 nM
40 | 3-(4-((5-chloro-2-fluorophenyl)fluoromethyl)piperidin-1-yl)-N-cyclopropylpyrido[3,4-b]pyrazin-2-amine [Cpd 452] | 21 nM
